According to PubChem BioAssay (NCI):
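Abbreviation: GI50, concentration required for 50% inhibition of growth. The concentration for full growth arrest is given as TGI.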

What was measured:
Test in all cases: inhibition of tumour cell growth, NCI panel, 384-well format
[1] = tested on: CCRF-CEM leukemia
[2] = tested on: HCC-2998 colon
[3] = tested on: SNB-75 CNS
[4] = tested on: MOLT-4 leukemia
[5] = tested on: SW-620 colon
[6] = tested on: SF-295 CNS
[7] = tested on: SF-268 CNS
[8] = tested on: HL-60(TB) leukemia
[9] = tested on: RPMI-8226 leukemia
[10] = tested on: BT-549 breast
[11] = tested on: EKVX NSCLC
[12] = tested on: 786-0 renal
[13] = tested on: HT29 colon
[14] = tested on: SNB-19 CNS
[15] = tested on: NCI-H23 lung
[16] = tested on: MALME-3M melanoma
[17] = tested on: SK-MEL-5 melanoma
[18] = tested on: NCI-H522 lung
[19] = tested on: SK-OV-3 ovarian
[20] = tested on: HOP-92 NSCLC
[21] = tested on: A549 NSCLC
[22] = tested on: M14 melanoma
[23] = tested on: SK-MEL-28 melanoma
[24] = tested on: KM12 colon
[25] = tested on: OVCAR-3 ovarian
[26] = tested on: SN12C renal
[27] = tested on: NCI-H226 lung
[28] = tested on: NCI-H322M lung
[29] = tested on: LOX IMVI melanoma
[30] = tested on: K-562 leukemia
[31] = tested on: UO-31 renal
[32] = tested on: PC-3 prostate
[33] = tested on: OVCAR-5 ovarian
[34] = tested on: OVCAR-4 ovarian
[35] = tested on: UACC-62 melanoma
[36] = tested on: HOP-62 NSCLC
[37] = tested on: CAKI-1 renal
[38] = tested on: IGROV1 ovarian
[39] = tested on: COLO 205 colon
[40] = tested on: MDA-MB-468 breast
[41] = tested on: NCI-H460 NSCLC
[42] = tested on: SF-539 CNS
[43] = tested on: RXF 393 renal
[44] = tested on: UACC-257 melanoma
[45] = tested on: NCI/ADR-RES ovarian
[46] = tested on: T-47D breast
[47] = tested on: SR leukemia
[48] = tested on: U251 glioblastoma
[49] = tested on: MDA-MB-231 breast
[50] = tested on: MDA-MB-435 melanoma
[51] = tested on: HS 578T breast
[52] = tested on: HCT-15 colon

In the case of CN1C/C=C/CCOc2cccc(c2)-c2ccnc(n2)Nc2cccc(c2)C1, the GI50 [1] is reported as 18.7 nM, the TGI [1] is reported as 35.5 nM and the GI50 [2] is reported as 32.5 nM. The TGI [2] was 219 nM, the GI50 [3] was 26 nM and the TGI [3] was 65.9 nM. It also gave a GI50 [4] of 19.8 nM, a TGI [4] of 37.2 nM and a GI50 [5] of 38.1 nM. It also gave a TGI [5] of 279 nM, a GI50 [6] of 34 nM and a TGI [6] of 504 nM. For the same molecule, the GI50 [7] was 22.9 nM, the TGI [7] was 67.8 nM and the GI50 [8] was 16 nM. The TGI [8] was 29.8 nM, the GI50 [9] was 23.7 nM and the TGI [9] was 50.6 nM. The GI50 [10] was 23.5 nM, the TGI [10] was 50.2 nM and the GI50 [11] was 50.2 nM. The TGI [11] was 192 nM, the GI50 [12] was 37 nM and the TGI [12] was 224 nM. For the same molecule, the GI50 [13] was 36.5 nM, the TGI [13] was 203 nM and the GI50 [14] was 41.1 nM. The TGI [14] was 1600 nM, the TGI [15] was 106 nM and the GI50 [16] was 33.5 nM. It also gave a TGI [16] of 88.3 nM, a GI50 [17] of 22 nM and a TGI [17] of 53.6 nM. The GI50 [18] was 59.8 nM, the TGI [18] was 227 nM and the GI50 [19] was 65.3 nM. It also gave a TGI [19] of 1140 nM, a GI50 [20] of 44.3 nM and a TGI [20] of 3560 nM. The GI50 [21] was 35.2 nM, the TGI [21] was 1090 nM and the GI50 [22] was 37.7 nM. It also gave a TGI [22] of 118 nM, a GI50 [23] of 25.7 nM and a TGI [23] of 86.5 nM. For the same molecule, the GI50 [24] was 26 nM, the TGI [24] was 74.7 nM and the GI50 [25] was 22.9 nM. For the same molecule, the TGI [25] was 60.3 nM, the GI50 [26] was 27.6 nM and the TGI [26] was 90.3 nM. For the same molecule, the GI50 [27] was 26.9 nM, the TGI [27] was 86 nM and the GI50 [28] was 30.1 nM. For the same molecule, the TGI [28] was 90.6 nM, the GI50 [29] was 18.5 nM and the TGI [29] was 35.7 nM. The GI50 [30] was 71 nM, the TGI [30] was 307 nM and the GI50 [31] was 20.6 nM. It also gave a TGI [31] of 40.7 nM, a GI50 [32] of 31.1 nM and a TGI [32] of 94.9 nM. The GI50 [33] was 29.4 nM, the TGI [33] was 7380 nM and the TGI [34] was 602 nM. It also gave a GI50 [35] of 18.6 nM, a TGI [35] of 45.4 nM and a GI50 [36] of 21.6 nM. For the same molecule, the TGI [36] was 49.4 nM, the GI50 [37] was 30.1 nM and the TGI [37] was 1140 nM. The TGI [38] was 128 nM, the GI50 [39] was 24.7 nM and the TGI [39] was 57.8 nM. For the same molecule, the GI50 [40] was 42.7 nM, the TGI [40] was 147 nM and the GI50 [41] was 19.9 nM. For the same molecule, the TGI [41] was 41.9 nM, the GI50 [42] was 25.2 nM and the TGI [42] was 62.6 nM. For the same molecule, the GI50 [43] was 19.2 nM, the TGI [43] was 35.4 nM and the GI50 [44] was 58.2 nM. It also gave a TGI [44] of 208 nM, a GI50 [45] of 34.2 nM and a TGI [45] of 124 nM. The GI50 [46] was 41.6 nM, the TGI [46] was 1200 nM and the TGI [47] was 14.9 nM. It also gave a GI50 [48] of 34 nM, a TGI [48] of 520 nM and a GI50 [49] of 51.5 nM. For the same molecule, the TGI [49] was 296 nM, the GI50 [50] was 29.2 nM and the TGI [50] was 88.9 nM. The GI50 [51] was 18.7 nM, the TGI [51] was 43.3 nM and the GI50 [52] was 30.1 nM. The TGI [52] was 119 nM.
